Experiments:
Assay in all cases: Enzyme Inhibition Measurements
Details in all cases: pH 4.5; 37 °C
Beta-secretase 1 = Beta-secretase 1 (Homo sapiens, UniProt P56817)
Protocol: (§1) Enzyme activities were assayed by monitoring the hydrolysis of substrate in the presence or absence of inhibitor compounds. The hydrolysis was recorded as the increase in fluorescence intensity over a 10 min time period. […] The Ki was calculated by using Ki = IC50/ (1 + [S]/Km), and a Km value determined according to Michaelis-Menten.

Beta-secretase 2 = molecular target: T1, Beta-secretase 2 (Homo sapiens, UniProt Q9Y5Z0)
T1 sequence (Q9Y5Z0 whole entry): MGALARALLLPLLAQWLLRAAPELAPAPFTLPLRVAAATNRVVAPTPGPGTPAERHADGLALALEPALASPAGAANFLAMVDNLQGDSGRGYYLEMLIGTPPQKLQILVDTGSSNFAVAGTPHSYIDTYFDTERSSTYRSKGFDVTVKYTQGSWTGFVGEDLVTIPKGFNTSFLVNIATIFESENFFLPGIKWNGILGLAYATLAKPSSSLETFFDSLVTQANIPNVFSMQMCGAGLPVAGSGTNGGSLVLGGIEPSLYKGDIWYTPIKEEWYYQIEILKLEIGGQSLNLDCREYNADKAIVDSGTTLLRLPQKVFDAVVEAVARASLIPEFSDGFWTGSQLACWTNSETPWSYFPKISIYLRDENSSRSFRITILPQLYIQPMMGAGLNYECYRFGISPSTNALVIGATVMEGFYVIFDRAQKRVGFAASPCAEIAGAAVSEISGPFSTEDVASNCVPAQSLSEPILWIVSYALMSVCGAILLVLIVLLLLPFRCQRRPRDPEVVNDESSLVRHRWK
Protocol: as §1

Cathepsin D = Cathepsin D (Homo sapiens, UniProt P07339)
Chain of Cathepsin D (P07339 65-162 limits assumed): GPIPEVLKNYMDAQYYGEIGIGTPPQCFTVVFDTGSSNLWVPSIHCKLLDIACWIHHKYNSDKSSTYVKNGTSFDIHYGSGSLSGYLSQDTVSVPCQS
Chain of Cathepsin D (P07339 169-412 limits assumed): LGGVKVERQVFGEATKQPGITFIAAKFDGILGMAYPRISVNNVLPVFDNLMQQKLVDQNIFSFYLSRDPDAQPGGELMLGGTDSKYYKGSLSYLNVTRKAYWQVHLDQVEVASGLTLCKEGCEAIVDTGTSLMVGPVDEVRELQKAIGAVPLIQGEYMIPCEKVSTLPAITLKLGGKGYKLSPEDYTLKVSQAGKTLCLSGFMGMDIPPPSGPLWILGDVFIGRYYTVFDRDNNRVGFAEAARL
Protocol: as §1

Chain of Beta-secretase 1 (P56817 whole entry): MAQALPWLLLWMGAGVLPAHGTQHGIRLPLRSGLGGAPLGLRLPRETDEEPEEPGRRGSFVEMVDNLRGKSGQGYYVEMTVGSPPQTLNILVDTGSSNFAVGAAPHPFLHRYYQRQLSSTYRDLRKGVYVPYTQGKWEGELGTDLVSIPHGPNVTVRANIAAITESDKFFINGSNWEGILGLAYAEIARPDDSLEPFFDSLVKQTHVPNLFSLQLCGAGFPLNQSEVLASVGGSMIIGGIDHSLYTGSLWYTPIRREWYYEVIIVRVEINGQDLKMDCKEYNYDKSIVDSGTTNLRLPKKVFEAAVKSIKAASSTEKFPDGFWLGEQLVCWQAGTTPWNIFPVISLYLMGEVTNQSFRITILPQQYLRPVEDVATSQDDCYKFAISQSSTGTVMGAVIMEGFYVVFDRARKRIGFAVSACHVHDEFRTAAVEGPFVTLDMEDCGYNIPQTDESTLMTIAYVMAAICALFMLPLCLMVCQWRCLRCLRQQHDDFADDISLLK

SMILES	Ki (Beta-secretase 1)	Ki (Beta-secretase 2)	Ki (Cathepsin D)
Cc1nc(COC(=O)N[C@@H](CS(C)(=O)=O)C(=O)N[C@@H](CC(C)C)[C@@H](O)C[C@@H](C)C(=O)N[C@H](C(=O)NCC(C)C)C(C)C)c(C)o1 [N2-[(2R,4S,5S)-5-{[N-{[(2,5-dimethyl-1,3-oxazol-4-yl)methoxy]carbonyl}-3-(methylsulfonyl)-L-alanyl]amino}-4-hydroxy-2,7-dimethyloctanoyl]-N-(2-methylpropyl)-L-valinamide]	0.12 nM	458 nM	304 nM
CSC[C@H](NC(=O)OCn1nc(C)cc1C)C(=O)N[C@@H](CC(C)C)[C@@H](O)C[C@@H](C)C(=O)N[C@H](C(=O)NCC(C)C)C(C)C [(3,5-dimethyl-1H-pyrazol-1-yl)methyl N-[(1R)-1-{[(1R,3S,4S)-3-hydroxy-1,6-dimethyl-1-{[(1S)-2-methyl-1-[(2-methylpropyl)carbamoyl]propyl]carbamoyl}heptan-4-yl]carbamoyl}-2-(methylsulfanyl)ethyl]carbamate]	4.4 nM	161 nM	15 nM
CSCC[C@H](NC(=O)OCn1nc(C)cc1C)C(=O)N[C@@H](CC(C)C)[C@@H](O)C[C@@H](C)C(=O)N[C@H](C(=O)NCc1ccccc1)C(C)C [(3,5-dimethyl-1H-pyrazol-1-yl)methyl N-[(1S)-1-{[(1R,3S,4S)-1-{[(1S)-1-(benzylcarbamoyl)-2-methylpropyl]carbamoyl}-3-hydroxy-1,6-dimethylheptan-4-yl]carbamoyl}-3-(methylsulfanyl)propyl]carbamate]	14 nM		25 nM
